Patent publication US9125939B2, “Carbostyril derivatives and mood stabilizers for treating mood disorders” (Otsuka Pharmaceutical Co., Ltd., priority 2003, dated 2015)

Columns and labels:
[1] = tested on: acute mania in adolescents with bipolar disorder; experiment: double-blind, randomized, placebo-controlled study as adjunctive treatment to divalproex for adolescent mania (Examples 7 and 8); type: in vivo, human
[2] = tested on: acute manic or mixed bipolar episodes; conditions: cotherapy vs monotherapy
[3] = DVP + about 10 mg/day, 6 weeks, vs DVP+placebo

O=C1CCc2ccc(OCCCCN3CCN(c4cccc(Cl)c4Cl)CC3)cc2N1 [aripiprazole, 7-{4-[4-(2,3-dichlorophenyl)-1-piperazinyl]butoxy}-3,4-dihydro-2(1H)-quinolinone]
YMRS response rate [1, 3]: significantly greater
reduction in YMRS scores from baseline to endpoint [1, 3]: greater reduction
Sedation, rated as mild or moderate ([1]; DVP combination vs DVP+placebo): more common
safety measures, group differences from baseline to endpoint ([1]; DVP combination vs DVP+placebo): No significant group differences
tolerability in combination with DVP ([1]; treatment of mania): well tolerated
HAMD-21 total scores [2]: total scores more than monotherapy
